Values belong to the compound of their own block, whether it stands above or below them. Square brackets hold non-standard residues; d marks the D form. Peptide text beside a SMILES is read from it. * marks the point of attachment. X1 = CCN(CC)c1ccc2c(-c3ccc(NC(=S)*)cc3C(=O)[O-])c3ccc(=[N+](CC)CC)cc-3oc2c1; pS = N[C@@H](COP(=O)(O)O)C(=O)O; AEA = NCCOCC(=O)O
Columns and labels:
[1] = biological target: T1, 14-3-3γ/ERRγ interaction (Homo sapiens, UniProt P61981); test: Confocal microscopy of FITC-ERRγ recruitment to 14-3-3γ-loaded condensates; conditions: 100 µM compound, 100 nM FITC-ERRγ
T1 sequence (P61981 1-247): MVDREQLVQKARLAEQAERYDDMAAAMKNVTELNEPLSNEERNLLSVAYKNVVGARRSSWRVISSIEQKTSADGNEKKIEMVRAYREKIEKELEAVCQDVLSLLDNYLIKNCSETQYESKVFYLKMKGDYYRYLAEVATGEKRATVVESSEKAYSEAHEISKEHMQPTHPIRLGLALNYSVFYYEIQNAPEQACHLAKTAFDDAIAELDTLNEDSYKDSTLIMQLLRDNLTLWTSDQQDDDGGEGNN

[2] = biological target: T2, 14-3-3γ/ERRγ interaction (Homo sapiens, UniProt P61981); test: Split luciferase assay inside condensates; assay type: biochemical; conditions: 250 pM LgBiT-ERRγ, 250 pM 14-3-3γ-SmBiT, 100 μM compound, 50 μM TCEP, overnight
T2 construct: made in house; host or cells: E. coli BL21(DE3)
T2 sequence (P61981 2-238 limits assumed): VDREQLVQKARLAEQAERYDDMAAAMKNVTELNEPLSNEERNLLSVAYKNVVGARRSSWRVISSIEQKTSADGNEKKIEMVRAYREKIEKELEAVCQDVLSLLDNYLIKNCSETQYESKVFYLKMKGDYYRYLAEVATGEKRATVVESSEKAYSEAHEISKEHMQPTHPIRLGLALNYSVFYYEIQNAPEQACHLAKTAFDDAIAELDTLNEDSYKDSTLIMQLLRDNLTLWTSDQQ

[3] = biological target: 14-3-3γ/ERRγ (Homo sapiens, UniProt P61981); test: pH-dependent fluorescence anisotropy titration of 14-3-3γ to FAM-labeled ERRγ peptide; assay type: binding; conditions: 100 µM compound
Procedure: page 10: acetonitrile was used. […] Fluorescence anisotropy (FA) assays […] labeled peptides. […] (1 picture or pasted object on this page, not shown here) page 23: Table S5. […] compound R1. Data obtained from a fit using a four-parameter logistic model to determine KD or KDapp values as 95% confidence interval. The mean s were used for the calculation of the stabilization factor. pH DMSO: KD at 24 h (μM) Compound […] 24 h (μM) Stabilization factor […] 8.0 4.3-8.6 0.054-0.061 103 […] Figure S16. a) Schematic overview of mCherryEA structure and uptake into synthetic condensates. The […] 552 nm, with collection of emission between 562-700 nm in both settings . c) Confocal micrographs of condensates prepared at different pH (bulk pH values shown), with 500 nM of mCherryEA. Excitation was performed at 488 nm or 552 nm, with collection of emission between 562 -700 nm in both settings. d) Plot of the determined local pH values in the condensates relative to the buffer pH (bulk), as determined from the samples in pa nel c and the calibration curve. (1 picture or pasted object on this page, not shown here)

[4] = test system: 14-3-3γ/ERRγ interaction; set-up: method as in PMID 36926879; conditions: cited from earlier work
[5] = LC-MS assay for partitioning of small molecules between bulk and condensate phase; assay type: physicochemical; conditions: 100 µM FC, 2 h equilibration
[6] = biological target: 14-3-3σ/CIP2A interaction (Homo sapiens, UniProt P31947); test: Confocal microscopy of CIP2A client recruitment to 14-3-3σ-loaded synthetic condensates; assay type: biochemical; conditions: 100 nM CIP2A; for enhancement of CIP2A recruitment at 100 μM molecular glue: 100 μM compound
[7] = biological target: T3, 14-3-3σ/HSPB6 (Homo sapiens, UniProt P31947); test: Competition of molecular glue with HSPB6 for 14-3-3σ binding in condensates (confocal microscopy); assay type: biochemical; conditions: 14-3-3σ-loaded condensates with HSPB6, overnight
T3 sequence (P31947 1-248): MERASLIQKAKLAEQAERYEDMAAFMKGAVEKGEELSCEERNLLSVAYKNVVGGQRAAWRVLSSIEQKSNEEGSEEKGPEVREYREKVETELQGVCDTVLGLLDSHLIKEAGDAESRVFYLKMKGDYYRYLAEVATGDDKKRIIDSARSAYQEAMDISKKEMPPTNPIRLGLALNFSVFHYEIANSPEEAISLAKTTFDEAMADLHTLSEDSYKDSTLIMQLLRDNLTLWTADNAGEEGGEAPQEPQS

[8] = biological target: apo 14-3-3σ; set-up: method as in PMID 30996864; conditions: read-out: KD^II (intrinsic affinity for apo 14-3-3σ); cited from earlier work
[9] = biological target: T4, PPARγ/PRIPRAP (Homo sapiens, UniProt P37231); test: Confocal microscopy of PRIPRAP coregulator recruitment to PPARγ-loaded condensates; assay type: biochemical; conditions: GW9662 10 μM + tesaglitazar 10 μM
T4 construct: made in house; host or cells: bacterial culture with IPTG induction
T4 sequence (P37231 235-505): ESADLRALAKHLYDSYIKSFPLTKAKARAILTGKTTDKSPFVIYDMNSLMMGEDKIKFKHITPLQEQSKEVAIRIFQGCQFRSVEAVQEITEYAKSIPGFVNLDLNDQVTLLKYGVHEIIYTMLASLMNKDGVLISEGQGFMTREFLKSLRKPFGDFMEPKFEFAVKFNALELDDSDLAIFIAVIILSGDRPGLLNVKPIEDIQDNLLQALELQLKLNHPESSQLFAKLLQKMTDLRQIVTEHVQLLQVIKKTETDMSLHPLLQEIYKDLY

[10] = biological target: T5, PPARγ/PRIPRAP (Homo sapiens, UniProt P37231); test: as above; assay type: biochemical; conditions: 100 nM PRIPRAP; for PRIPRAP recruitment to PPARγ-loaded condensates relative to DMSO control: 10 μM ligand, 400 nM PPARγ, overnight
T5 construct: made in house; host or cells: bacterial culture with IPTG induction

[11] = biological target: T6, 14-3-3σ (Homo sapiens, UniProt P31947); test: Fluorescence anisotropy protein titration of 14-3-3σ to HSPB6 peptide; assay type: binding
T6 sequence (P31947 1-248): T3 sequence (P31947 1-248)

[12] = test system: PPARγ/PRIPRAP; test: Fluorescence anisotropy titration of PPARγ to PRIPRAP peptide with PPAR ligands; assay type: binding; conditions: FA, PPARγ titrated to PRIPRAP peptide
Source text: to prevent aspecific hydrophobic interactions.
4-parameter logistic model . The resulting KD or KDapp obtained from the fit is shown as mean with the

[13] = biological target: T7, PPARγ/MED1 DRIP-2 (Homo sapiens, UniProt P37231); test: Tesaglitazar-dependent recruitment of MED1 DRIP-2 to PPARγ-loaded condensates; assay type: biochemical
T7 construct: made in house; host or cells: bacterial culture with IPTG induction
T7 sequence (P37231 238-503 limits assumed): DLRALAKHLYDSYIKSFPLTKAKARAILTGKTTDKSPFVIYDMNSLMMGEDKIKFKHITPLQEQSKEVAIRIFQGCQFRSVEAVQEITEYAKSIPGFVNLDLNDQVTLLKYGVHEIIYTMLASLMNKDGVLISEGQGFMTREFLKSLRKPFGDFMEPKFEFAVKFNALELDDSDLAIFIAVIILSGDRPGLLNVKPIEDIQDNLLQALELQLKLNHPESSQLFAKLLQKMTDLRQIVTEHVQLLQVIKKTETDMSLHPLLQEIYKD
Procedure: (§1) The dose dependence of the PPI formation was studied using tesaglitazar (Figures 6g, S24 and S25). Here, we found a significant effect in PPI stabilization in the condensates at 10 μM compound. […].

[14] = biological target: T8, PPARγ/EP300 (Homo sapiens, UniProt P37231); test: Tesaglitazar-dependent recruitment of EP300 to PPARγ-loaded condensates; assay type: biochemical
T8 construct: made in house; host or cells: bacterial culture with IPTG induction
T8 sequence (P37231 238-503 limits assumed): T7 sequence (P37231 238-503 limits assumed)
Procedure: as §1

[15] = Partitioning of autofluorescent chiglitazar into condensates by confocal fluorescence; assay type: physicochemical; conditions: 10 µM, intensity inside condensates versus dilute solution

Stabilization factor ([3]; pH 6.5, 24 h): 3
Stabilization factor ([3]; pH 7.0, 24 h): 8
Stabilization factor ([3]; pH 7.5, 24 h): 40
Stabilization factor ([3]; pH 8.0, 24 h): 103
Stabilization factor ([3]; pH 8.5, 24 h): 152
Compound: CN(C)CCSSCCN(C)C(=O)c1cccc(C=O)c1 [Compound R1]
ERRγ recruitment to condensates over time [1]: reacts over time to yield ERRy recruitment
bioluminescence signal in split luciferase assay inside condensates [2]: significantly enhanced bioluminescence signal
SF100μM (stabilization factor at 100 μM compound concentration) [4]: 21

Compound: CN(C)CCSSCCN(C)C(=O)c1ccc(C=O)cc1 [Compound R2]
bioluminescence signal in split luciferase assay inside condensates [2]: significantly enhanced bioluminescence signal
SF100μM (stabilization factor at 100 μM compound concentration) [4]: 10

Compound: CN(C)CCSSCCN(C)C(=O)c1cc(Br)cc(C=O)c1 [Compound R3]
bioluminescence signal in split luciferase assay inside condensates [2]: significantly enhanced bioluminescence signal
SF100μM (stabilization factor at 100 μM compound concentration) [4]: 37

Compound: CN(C)CCSSCCN(C)C(=O)c1cccc(F)c1 [Compound R4]
SF100μM (stabilization factor at 100 μM compound concentration) [4]: 5

bioluminescence signal in split luciferase assay inside condensates [2]: no change in the bioluminescence
Compound: CN(C)CCN(C)C(=O)c1ccc(C=O)c(F)c1 [Compound R5]
SF100μM (stabilization factor at 100 μM compound concentration) [4]: 1

partitioning coefficient to the condensate phase [5]: 0.96 ± 0.02
Compound: C=CC(C)(C)OCC1OC(OC2C3=C(C(C)COC(C)=O)CC(O)C3(C)C=C3C(COC)CCC3C(C)C2O)C(O)C(O)C1O (stereo not shown) [FC, Fusicoccin A]

Compound: C=CC(C)(C)OC[C@H]1O[C@H](O[C@@H]2C3=C([C@H](C)CN4CCCCC4)C[C@H](O)[C@]3(C)/C=C3/[C@@H](COC)CC[C@H]3[C@@H](C)[C@H]2O)[C@H](O)[C@@H](O)[C@@H]1O [FC-31]
enhancement of CIP2A recruitment at 100 μM molecular glue [6]: significant enhancement of CIP2A recruitment

Compound: C=CC(C)(C)OC[C@H]1O[C@H](O[C@@H]2C3=C(C(C)C)C[C@H](O)[C@]3(C)/C=C3/[C@@H](COC)CC[C@H]3[C@@H](C)[C@H]2O)[C@H](O)[C@@H](O)[C@@H]1O [FC-J]
enhancement of CIP2A recruitment at 100 μM molecular glue [6]: differentiated performance between the FA assay and the condensates

Compound: C=CC(C)(C)OC[C@H]1O[C@H](O[C@@H]2C3=C([C@H](C)CNC(C)=O)C[C@H](O)[C@]3(C)/C=C3/[C@@H](COC)CC[C@H]3[C@@H](C)[C@H]2O)[C@H](O)[C@@H](O)[C@@H]1O [FC-NAc]
enhancement of recruitment of CIP2A at 1 μM molecular glue ([6]; 1 μM compound): significant enhancement of recruitment
competition with HSPB6 for 14-3-3 binding in condensates [7]: significant competition with HSPB6
Kd [8]: 10 µM

Compound: COCC1CCC2C1=CC1(C)C(=C(C(C)C)C3CCOC31)C(OC1OC3COC(C)(C)OC3C(O)C1O)C(O)C2C (stereo not shown) [FC-THF]
enhancement of CIP2A recruitment at 100 μM molecular glue [6]: significant enhancement of CIP2A recruitment

PRIPRAP recruitment to PPARγ-loaded condensates relative to DMSO control [10]: did not influence PRIPRAP recruitment
Compound: O=C(Nc1ccccc1)c1cc([N+](=O)[O-])ccc1Cl [GW9662]
effect of antagonist in codosing with tesaglitazar on PRIPRAP recruitment [9]: inhibited the stabilizing effect of tesaglitazar

Compound: CCN(CC)c1ccc2c(-c3ccc(NC(=S)NCCOCC(=O)N[C@@H](Cc4c[nH]c5ccccc45)C(=O)N[C@@H](CC(C)C)C(=O)N[C@@H](CCCNC(=N)N)C(=O)N[C@@H](CCCNC(=N)N)C(=O)N[C@@H](C)C(=O)N[C@@H](COP(=O)(O)O)C(=O)N[C@@H](C)C(=O)N4CCC[C@H]4C(=O)N[C@@H](CC(C)C)C(=O)N4CCC[C@H]4C(=O)NCC(=O)N[C@@H](CC(C)C)C(=O)N[C@@H](CO)C(=O)N[C@@H](C)C(=O)N4CCC[C@H]4C(N)=O)cc3C(=O)[O-])c3ccc(=[N+](CC)CC)cc-3oc2c1 [HSPB6] ({X1-AEA}-WLRRA[pS]APLPGLSAP-NH2; C-terminus assumed)
fold lower KD for 14-3-3σ than CIP2A in dilute solution [11]: > 10 fold

Compound: CCO[C@@H](Cc1ccc(OCCc2ccc(OS(C)(=O)=O)cc2)cc1)C(=O)O [Tesaglitazar]
SF100 μM (stabilization factor, fold change in KD^app in the presence of the compound) [12]: 19
ligand-mediated stabilization of PPARγ/MED1 DRIP-2 in condensates [13]: ligand-mediated stabilization of the PPI was observed
ligand-mediated stabilization of PPARγ/EP300 in condensates [14]: ligand-mediated stabilization of the PPI was observed
PRIPRAP recruitment to PPARγ-loaded condensates relative to DMSO control [10]: significant recruitment of PRIPRAP
compound concentration with significant effect in PPI stabilization in the condensates ([10]; dose dependence): 10 µM

partitioning coefficient [15]: 23 ± 4
Compound: chiglitazar

— PMC11826995, “Modulation of Protein–Protein Interactions with Molecular Glues in a Synthetic Condensate Platform” (Journal of the American Chemical Society, 2025)
